Experimental findings from patent US20250353891A1 (MEDIMMUNE LIMITED, priority 2022, published 2025) are described below.

Structures are written as SMILES. Read-outs that look alike come from different tables or passages of the source. Starred links: 1 amine or outer side, 2 acyl side, 3 side chain; linkers in the order of their positions; H or OH if unused. Non-standard residues stand in square brackets, D forms with d. Residues, ends and D or L forms follow the SMILES beside them. Groups on a side chain read outwards from the residue. *: point of attachment. Dip = N[C@H](C(=O)O)C(c1ccccc1)c1ccccc1; γGlu = O=C(O)[C@H](CCC(=O)[*:2])N[*:1]; Stearoyl = CCCCCCCCCCCCCCCCCC(=O)*; Palmitoyl = CCCCCCCCCCCCCCCC(=O)*; αMeF = C[C@](N)(Cc1ccccc1)C(=O)O; PEG4 = NCCOCCOCCOCCOCCC(=O)O; Nle = CCCC[C@H](N)C(=O)O; PEG2 = NCCOCCOCCC(=O)O; Aib = CC(C)(N)C(=O)O

Assay [1] in a line: Mouse acute food intake study. The class given is in vivo. To be noted: male C57Bl/6 mice, s.c., dose 10 nmol/kg, cumulative food intake at 24 hr vs vehicle. The protocol:
Male C57Bl/6 mice obtained from Jackson Laboratories or Charles River at 8-9 weeks of age and were housed one per cage in BioDaq (Research Diets) cages. Mice were placed on Alpha Dri bedding, standard chow diet (Envigo, 2018) and given water pouches. Mice were allowed to acclimate for 1-2 weeks. Body weight was measured to ensure appropriate acclimation. After acclimation, mice were sham dosed a minimum of 2 times prior to initiation of food intake study. On study day, mice were placed in clean cage bottoms, weighed, and fasted for 6-8 hours. Mice were sorted into groups based on average 24-hour food intake data and body weight. 1-2 hours prior to lights out, mice were dosed subcutaneously with one vehicle or test peptide dissolved in an appropriate vehicle at 5 mL/kg. Mice were left undisturbed and allowed access to food and water for 48 hours. Automated food intake was monitored in the BioDaq system was monitored during this time. Discrete food intake data was exported into MS Excel from which cumulative food intake data was generated and analyzed.

In assay [2] the target is human GLP-1 receptor (hGLP-1R) (Homo sapiens, UniProt P43220). Put plainly: cAMP production (HTRF) in CHO cells expressing hGLP-1R. Format: cell-based. Details: expressed in transfected cells. The settings on record: for EC50: cAMP in CHO hGLP-1R cells, geometric mean, read-out: hGLP-1R EC50; for % Relative Potency Ratio: % GLP-1R activity relative to GLP-1 / % GlucR activity relative to glucagon. Put shortly: (§1)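 Cells were resuspended in assay buffer at batch-optimized density, typically 1×10^5 cells/mL for hGLP-1R and 2×10^5 cells/mL for hGCGR. After 30 min incubation at room temperature with compound, cAMP was measured by two-step HTRF. EC50 values came from 4-parameter logistic fits of % Delta F.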
Chain of human GLP-1 receptor (hGLP-1R) (P43220 24-463): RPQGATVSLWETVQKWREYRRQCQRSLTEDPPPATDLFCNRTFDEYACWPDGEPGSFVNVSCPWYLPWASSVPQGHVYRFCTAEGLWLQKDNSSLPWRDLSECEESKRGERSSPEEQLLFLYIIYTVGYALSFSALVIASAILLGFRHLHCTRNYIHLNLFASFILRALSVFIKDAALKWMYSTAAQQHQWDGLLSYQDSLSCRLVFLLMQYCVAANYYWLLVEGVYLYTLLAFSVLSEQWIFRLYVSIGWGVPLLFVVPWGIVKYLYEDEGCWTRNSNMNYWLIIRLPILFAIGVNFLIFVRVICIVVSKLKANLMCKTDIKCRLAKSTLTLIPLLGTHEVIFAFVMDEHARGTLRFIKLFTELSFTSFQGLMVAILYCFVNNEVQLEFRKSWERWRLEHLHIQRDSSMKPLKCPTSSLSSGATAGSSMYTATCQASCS

Assay [3] addresses human glucagon receptor (hGCGR) (Homo sapiens, UniProt P47871). Put plainly: cAMP production (HTRF) in CHO cells expressing hGCGR. Format: cell-based. The arrangement: expressed in transfected cells. The settings on record: cAMP in CHO hGCGR cells, geometric mean, read-out: hGluc-R EC50. Put shortly:
as §1

[4] abbreviates: Table 6, peptides modified at position 17.
Where [5] appears, read: Table 7, peptides modified at position 20.

Chain of human glucagon receptor (hGCGR) (P47871 26-477): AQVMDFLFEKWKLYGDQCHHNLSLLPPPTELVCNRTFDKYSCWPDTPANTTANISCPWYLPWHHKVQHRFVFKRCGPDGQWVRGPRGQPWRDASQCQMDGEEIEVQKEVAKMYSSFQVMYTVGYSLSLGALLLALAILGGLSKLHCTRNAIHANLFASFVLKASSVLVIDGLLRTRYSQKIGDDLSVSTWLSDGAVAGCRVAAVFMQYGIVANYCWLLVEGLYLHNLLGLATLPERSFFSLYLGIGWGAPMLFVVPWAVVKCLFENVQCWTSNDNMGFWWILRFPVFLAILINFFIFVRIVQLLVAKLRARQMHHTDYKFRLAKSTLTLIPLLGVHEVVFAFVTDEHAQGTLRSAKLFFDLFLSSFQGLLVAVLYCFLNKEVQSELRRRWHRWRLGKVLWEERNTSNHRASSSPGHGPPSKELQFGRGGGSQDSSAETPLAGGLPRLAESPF

As to `CCCCCCCCCCCCCCCCCC(=O)N[C@@H](CCC(=O)N[C@@H](CCC(=O)NCCOCCOCCC(=O)NCCOCCOCCC(=O)NCCCC[C@H](NC(=O)[C@H](CO)NC(=O)[C@H](CC(=O)O)NC(=O)[C@H](CC(C)C)NC(=O)[C@@H](NC(=O)[C@H](CCCCN)NC(=O)[C@H](CO)NC(=O)[C@@H](NC(=O)[C@H](CC(=O)O)NC(=O)[C@H](CO)NC(=O)[C@@H](NC(=O)[C@](C)(Cc1ccccc1)NC(=O)[C@H](CO)NC(=O)CNC(=O)[C@H](CCC(N)=O)NC(=O)C(C)(C)NC(=O)[C@@H](N)Cc1c[nH]cn1)[C@@H](C)O)C(C)C)C(c1ccccc1)c1ccccc1)C(=O)N[C@@H](C)C(=O)N[C@@H](C)C(=O)N[C@@H](CCC(N)=O)C(=O)N[C@@H](CC(=O)O)C(=O)N[C@@](C)(Cc1ccccc1)C(=O)N[C@H](C(=O)N[C@@H](CCC(=O)O)C(=O)NC(C)(C)C(=O)N[C@@H](CC(C)C)C(=O)N[C@@H](C)C(=O)N[C@@H](CC(N)=O)C(=O)N[C@H](C(N)=O)[C@@H](C)O)C(C)C)C(=O)O)C(=O)O` [Peptide 45] (H-H[Aib]QGS[αMeF]TSDVSK[Dip]LDSK([PEG2-PEG2-γGlu-γGlu-Stearoyl])AAQD[αMeF]VE[Aib]LANT-NH2; N-terminus assumed), the “24 hr % Vehicle Food Intake” value in assay [1] is 76.2%. Also, the EC50 in assay [2] (setting [4]) came to 2.03 pM; in assay [3] (setting [4]), 14.9 pM. In addition, the “% Relative Potency Ratio” value in assay [2] (Table 6) worked out at 14.6.

Take `CCCCCCCCCCCCCCCCCC(=O)N[C@@H](CCC(=O)N[C@@H](CCC(=O)NCCOCCOCCC(=O)NCCOCCOCCC(=O)NCCCC[C@H](NC(=O)[C@H](CO)NC(=O)[C@H](CC(=O)O)NC(=O)[C@H](CC(C)C)NC(=O)[C@@H](NC(=O)[C@H](CCCCN)NC(=O)[C@H](CO)NC(=O)[C@@H](NC(=O)[C@H](CC(=O)O)NC(=O)[C@H](CO)NC(=O)[C@@H](NC(=O)[C@](C)(Cc1ccccc1)NC(=O)[C@H](CO)NC(=O)CNC(=O)[C@H](CCC(N)=O)NC(=O)[C@H](CO)NC(=O)[C@@H](N)Cc1c[nH]cn1)[C@@H](C)O)C(C)C)C(c1ccccc1)c1ccccc1)C(=O)N[C@@H](C)C(=O)N[C@@H](C)C(=O)N[C@@H](CCC(N)=O)C(=O)N[C@@H](CC(=O)O)C(=O)N[C@@](C)(Cc1ccccc1)C(=O)N[C@H](C(=O)N[C@@H](CCC(=O)O)C(=O)NC(C)(C)C(=O)N[C@@H](CC(C)C)C(=O)N[C@@H](CCC(=O)O)C(=O)N[C@@H](C)C(=O)NCC(=O)NCC(N)=O)C(C)C)C(=O)O)C(=O)O` [Peptide 46] (H-HSQGS[αMeF]TSDVSK[Dip]LDSK([PEG2-PEG2-γGlu-γGlu-Stearoyl])AAQD[αMeF]VE[Aib]LEAGG-NH2; N-terminus assumed): the “24 hr % Vehicle Food Intake” value in assay [1] was found to be 72.1%. Further, the EC50 in assay [2] (setting [4]) worked out at 3.39 pM; in assay [3] (setting [4]), 5.91 pM. Besides, the “% Relative Potency Ratio” value in assay [2] (Table 6) was 3.4.

Consider `CCCCCCCCCCCCCCCC(=O)N[C@@H](CCC(=O)NCCOCCOCCOCCOCCC(=O)NCCCC[C@H](NC(=O)[C@@H](NC(=O)[C@H](CC(=O)O)NC(=O)[C@H](CC(C)C)NC(=O)[C@](C)(Cc1ccccc1)NC(=O)[C@H](CCCCN)NC(=O)[C@H](CO)NC(=O)[C@@H](NC(=O)[C@H](CC(=O)O)NC(=O)[C@H](CO)NC(=O)[C@@H](NC(=O)[C@H](Cc1ccccc1)NC(=O)[C@@H](NC(=O)CNC(=O)[C@H](CCC(N)=O)NC(=O)C(C)(C)NC(=O)[C@@H](N)Cc1c[nH]cn1)[C@@H](C)O)[C@@H](C)O)C(C)C)C(C)C)C(=O)N[C@@H](CCCNC(=N)N)C(=O)N[C@@H](C)C(=O)N[C@@H](CCC(N)=O)C(=O)N[C@@H](CC(=O)O)C(=O)N[C@@](C)(Cc1ccccc1)C(=O)N[C@H](C(=O)N[C@@H](CCC(=O)O)C(=O)NC(C)(C)C(=O)N[C@@H](CC(C)C)C(=O)N[C@@H](CCCC)C(=O)N[C@@H](CCC(=O)O)C(=O)N[C@H](C(N)=O)[C@@H](C)O)C(C)C)C(=O)O` [Peptide 68] (H-H[Aib]QGTFTSDVSK[αMeF]LDVK([PEG4-γGlu-Palmitoyl])RAQD[αMeF]VE[Aib]L[Nle]ET-NH2; N-terminus assumed), for which, in assay [1], the “24 hr % Vehicle Food Intake” value turned out to be 74.2%. Further, the EC50 in assay [2] (setting [4]) came out at 1.1 pM; in assay [3] (setting [4]), 4.67 pM. Moreover, the “% Relative Potency Ratio” value in assay [2] (Table 6) came out at 8.4.

On to `CCCCCCCCCCCCCCCCCC(=O)N[C@@H](CCC(=O)N[C@@H](CCC(=O)NCCOCCOCCOCCOCCC(=O)NCCCC[C@H](NC(=O)[C@H](CO)NC(=O)[C@H](CC(=O)O)NC(=O)[C@H](CC(C)C)NC(=O)[C@](C)(Cc1ccccc1)NC(=O)[C@H](CCCCN)NC(=O)[C@H](CO)NC(=O)[C@@H](NC(=O)[C@H](CC(=O)O)NC(=O)[C@H](CO)NC(=O)[C@@H](NC(=O)[C@](C)(Cc1ccccc1)NC(=O)[C@H](CO)NC(=O)CNC(=O)[C@H](CCC(N)=O)NC(=O)C(C)(C)NC(=O)[C@@H](N)Cc1c[nH]cn1)[C@@H](C)O)C(C)C)C(=O)N[C@@H](C)C(=O)N[C@@H](C)C(=O)N[C@@H](CCC(N)=O)C(=O)N[C@@H](CC(=O)O)C(=O)N[C@@](C)(Cc1ccccc1)C(=O)N[C@H](C(=O)N[C@@H](CCC(=O)O)C(=O)NC(C)(C)C(=O)N[C@@H](CC(C)C)C(=O)N[C@@H](CCC(=O)O)C(=O)N[C@@H](C)C(=O)NCC(=O)NCC(N)=O)C(C)C)C(=O)O)C(=O)O` [Peptide 71] (H-H[Aib]QGS[αMeF]TSDVSK[αMeF]LDSK([PEG4-γGlu-γGlu-Stearoyl])AAQD[αMeF]VE[Aib]LEAGG-NH2), for which, in assay [1], the “24 hr % Vehicle Food Intake” value is recorded as 80.6%. Further, the figures for the EC50 in assay [2] (setting [4]) and in assay [3] (setting [4]) were 2.17 pM and 53.7 pM, respectively. Further, the “% Relative Potency Ratio” value in assay [2] (Table 6) was found to be 48.9.

With `CC(C)C[C@H](NC(=O)[C@H](Cc1c[nH]c2ccccc12)NC(=O)[C@H](C)NC(=O)[C@@H](NC(=O)[C@H](Cc1ccccc1)NC(=O)[C@H](CC(=O)O)NC(=O)[C@H](CCCCNC(=O)COCCOCCNC(=O)COCCOCCNC(=O)CC[C@H](NC(=O)CCCCCCCCCCCCCCCCC(=O)O)C(=O)O)NC(=O)[C@H](C)NC(=O)[C@H](CCCNC(=N)N)NC(=O)[C@H](CCC(=O)O)NC(=O)[C@H](CO)NC(=O)[C@H](CC(=O)O)NC(=O)[C@H](CC(C)C)NC(=O)[C@](C)(Cc1ccccc1)NC(=O)[C@H](CCCCN)NC(=O)[C@H](CO)NC(=O)[C@@H](NC(=O)[C@H](CC(=O)O)NC(=O)[C@H](CO)NC(=O)[C@@H](NC(=O)[C@H](Cc1ccccc1)NC(=O)[C@@H](NC(=O)CNC(=O)[C@H](CCC(N)=O)NC(=O)C(C)(C)NC(=O)[C@@H](N)Cc1c[nH]cn1)[C@@H](C)O)[C@@H](C)O)C(C)C)C(C)C)C(=O)N[C@@H](CCC(=O)O)C(=O)N[C@@H](C)C(=O)NC(C)(C)C(=O)NCC(=O)O` [Peptide 526], the EC50 amounted to 194 pM in assay [2] (setting [5]) and 690 pM in assay [3] (setting [5]). In addition, the “% Relative Potency Ratio” value in assay [2] (Table 7) turned out to be 7.0.
